Experimental data from the OligoGym collection.
Where “and” joins values, the source holds several entries; their conditions need not be identical. Identical values can stand only once. After the bases stand the sugars from the 5' end (letter, count) and the backbone: PS all phosphorothioate, else s phosphorothioate and o phosphodiester by linkage. HELM strings list units from the 5' end as sugar, base in round brackets, then linkage (d deoxyribose, r ribose, m 2'-O-methyl, p phosphodiester). Methylation of C is not given here. [moe] = 2'-O-(2-methoxyethyl) (MOE); [cEt] = constrained ethyl (cEt); [sp] = phosphorothioate linkage; e = 2'-O-(2-methoxyethyl) (MOE); k = constrained ethyl (cEt); d = 2'-deoxy (DNA)

Tests used:
HBV = settings: ASO, HepG2, 0.07 µM
APOL1 = settings: ASO

Substance | target mRNA inhibition (APOL1; A431, 2 µM) | target mRNA inhibition (APOL1; A431, 0.0625 µM) | target mRNA inhibition (APOL1; A431, 0.25 µM) | target mRNA inhibition (APOL1; A431, 1 µM) | further results
RNA1{[moe](C)[sp].[cEt](T)[sp].[cEt](G)[sp].d(A)[sp].d(A)[sp].d(C)[sp].d(A)[sp].d(A)[sp].d(A)[sp].d(T)[sp].d(G)[sp].d(G)[sp].d(C)[sp].[cEt](A)[sp].[cEt](C)[sp].[moe](T)}$$$$V2.0 |  |  |  |  | target mRNA inhibition (HBV): 69% and 58%
RNA1{[moe](A)[sp].[moe](A)[sp].[moe](G)[sp].[moe](A)[sp].[moe](T)[sp].d(G)[sp].d(A)[sp].d(G)[sp].d(G)[sp].d(C)[sp].d(A)[sp].d(T)[sp].d(A)[sp].d(G)[sp].[moe](C)[sp].[moe](A)[sp].[moe](G)}$$$$V2.0 |  |  |  |  | target mRNA inhibition (HBV): 26% and 34%
RNA1{[moe](A)[sp].[moe](C)[sp].[moe](G)[sp].d(G)[sp].d(G)[sp].d(C)[sp].d(A)[sp].d(A)[sp].d(C)[sp].d(A)[sp].d(T)[sp].d(A)[sp].[moe](C)[sp].[moe](C)[sp].[moe](T)[sp].[moe](T)}$$$$V2.0 |  |  |  |  | target mRNA inhibition (HBV): 48% and 39%
RNA1{[moe](C)[sp].[moe](C)[sp].[moe](A)[sp].d(A)[sp].d(T)[sp].d(T)[sp].d(T)[sp].d(A)[sp].d(T)[sp].d(G)[sp].d(C)[sp].d(C)[sp].[moe](T)[sp].[moe](A)[sp].[moe](C)[sp].[moe](A)[sp].[moe](G)}$$$$V2.0 |  |  |  |  | target mRNA inhibition (HBV): 53% and 32%
RNA1{[moe](A)[sp].[moe](G)[sp].[moe](A)[sp].d(T)[sp].d(G)[sp].d(A)[sp].d(G)[sp].d(G)[sp].d(C)[sp].d(A)[sp].d(T)[sp].d(A)[sp].[moe](G)[sp].[moe](C)[sp].[moe](A)[sp].[moe](G)[sp].[moe](C)}$$$$V2.0 |  |  |  |  | target mRNA inhibition (HBV): 69% and 63%
TCAGATGGGTACTTCT (sugars kkddddkekekkdddd, PS) | 62% |  |  |  | 
CTTTATACCAGTGTCT (sugars k2 d4 e3 k2 d5, PS) | 96% | 46% | 74% | 92% | target mRNA inhibition (APOL1; A431, 0.0156 µM): 12%
TTATATTTGATCCTCA (sugars kkddddkekekddddd, PS) | 91% |  |  |  | 
TGTTATATTTGATCCT (sugars kkkddddkekeddddd, PS) | 71% |  |  |  | 
GCAGTTTTGTAAGTGC (sugars kkkddddkekeddddd, PS) | 60% |  |  |  | 
TAATTCTATTAGAGGG (sugars k2 d4 e3 k2 d5, PS) | 59% |  |  |  | 
GTGTGATAACTAGCTG (sugars k4 d9 k3, PS) |  | 78% | 88% | 93% | 
GAAGATTGGCTCTGGC (sugars k2 d4 e3 k2 d5, PS) | 81% |  |  |  | 
GAATTATGGAATTGCA (sugars kkddddekekeddddd, PS) | 95% |  |  |  | 
TCCGTCAATATATTCT (sugars kkddddekekeddddd, PS) | 97% | 61% | 86% | 96% | target mRNA inhibition (APOL1; A431, 0.0156 µM): 33%; target mRNA inhibition (APOL1; A431, 0.04 µM): 50%
CATTCAGAATTTCCAC (sugars k4 d9 k3, PS) |  | 56% | 81% | 90% and 81% | target mRNA inhibition (APOL1; A431, 0.04 µM): 15%
GCAATGCTGACTTGGC (sugars kddddkekekeddddd, PS) | 45% |  |  |  | 
GTGTTATATTTGATCC (sugars k3 d4 k3 e1 d5, PS) | 94% | 63% | 84% | 91% | target mRNA inhibition (APOL1; A431, 0.0156 µM): 32%; target mRNA inhibition (APOL1; A431, 0.04 µM): 50%
CCCTTTTGGCACCTTC (sugars k4 d9 k3, PS) |  | 52% and 73% | 81% and 88% | 94% and 93% | 
GCTAATTTTCTGACTG (sugars kkddddekekeddddd, PS) | 88% |  |  |  | 
TCTATTAGAGGGCTAG (sugars kdddddkekekddddd, PS) | 42% |  |  |  | 
GCTAATTTTCTGACTG (sugars kkddddkekekkdddd, PS) | 71% |  |  |  | 
GCAAGGTTGTCCAGAG (sugars k4 d9 k3, PS) |  | 43% | 61% | 61% | 
AGCTTTAAACTCAGGT (sugars kkddddkekekkdddd, PS) | 16% |  |  |  | 

Substance | target mRNA inhibition (APOL1; A431, 2 µM) | target mRNA inhibition (APOL1; A431, 0.0625 µM) | target mRNA inhibition (APOL1; A431, 0.25 µM) | target mRNA inhibition (APOL1; A431, 1 µM) | further results
TTCTATTGGGCCTCAG (sugars k4 d9 k3, PS) |  | 74% | 87% | 94% | 
CACAGCATTGAGTACA (sugars k4 d9 k3, PS) |  | 44% | 66% | 86% | 
TTCTATTAGAGGGCTA (sugars k2 d4 e4 k2 d4, PS) | 76% |  |  |  | 
TCCGTCAATATATTCT (sugars k2 d4 e3 k2 d5, PS) | 96% | 59% | 84% | 93% | target mRNA inhibition (APOL1; A431, 0.0156 µM): 27%
ATTCTCATGGTACAGG (sugars kkdddddkekeddddd, PS) | 95% | 46% | 74% | 90% | target mRNA inhibition (APOL1; A431, 0.0156 µM): 18%
ACACATCATTGGGTTA (sugars k2 d4 e3 k2 d5, PS) | 51% |  |  |  | 
CGTCAATATATTCTTT (sugars kdddddkekekddddd, PS) | 90% |  |  |  | 
TTGTAAGTGCAACCAA (sugars k2 d4 e4 k2 d4, PS) | 70% |  |  |  | 
CAGATTCTGTGTGCTC (sugars k4 d9 k3, PS) |  | 51% | 68% | 75% | 
GTGTTATATTTGATCC (sugars kkddddkekekddddd, PS) | 78% |  |  |  | 
CCGTCAATATATTCTT (sugars k3 d4 k3 e1 d5, PS) | 98% | 70% | 92% | 96% | target mRNA inhibition (APOL1; A431, 0.0156 µM): 36%
ATTCCTGGGCAGTTCA (sugars k4 d9 k3, PS) |  | 37% | 43% | 58% | 
TAATGTCTCAAACTCC (sugars k4 d9 k3, PS) |  | 24% | 50% | 80% | 
ATTCAGAATTTCCACT (sugars kkddddkekekkdddd, PS) | 57% |  |  |  | 
GTATTTCTTGATGTGG (sugars kkkddddkdkdkdddd, PS) | 92% | 59% | 82% | 86% | target mRNA inhibition (APOL1; A431, 0.0156 µM): 24%
TCTATTAGAGGGCTAG (sugars kkddddekekeddddd, PS) | 67% |  |  |  | 
ATCAGATGGGTACTTC (sugars kddddkekekeddddd, PS) | 43% |  |  |  | 
TCAGATGGGTACTTCT (sugars kkddddkdkdkddddd, PS) | 88% |  |  |  | 
GTTATATTTGATCCTC (sugars kkkddddkdkdkdddd, PS) | 92% |  |  |  | 
GTATTGCCAGCTAAGG (sugars kkddddkekekkdddd, PS) | 74% |  |  |  | 
TAATTCTATTAGAGGG (sugars kkkddddkekekdddd, PS) | 41% |  |  |  | 
GCAATGCTGACTTGGC (sugars kdddddkekekddddd, PS) | 85% |  |  |  | 
ACATCATTGGGTTATG (sugars kddddkekekeddddd, PS) | 76% |  |  |  | 
ATTCTATTAGAGGGCT (sugars k4 d9 k3, PS) |  | 54% and 53% and 55% | 82% and 76% and 86% |  | target mRNA inhibition (APOL1; A431, 0.0156 µM): 31%

Substance | target mRNA inhibition (APOL1; A431, 2 µM) | target mRNA inhibition (APOL1; A431, 0.0625 µM) | target mRNA inhibition (APOL1; A431, 0.25 µM) | target mRNA inhibition (APOL1; A431, 1 µM) | further results
TAGTGCTATAGAGGGA (sugars k3 d10 k3, PS) |  | 57% | 86% | 95% | 
TTATGAAATTATTGGT (sugars k2 d4 e3 k2 d5, PS) | 39% |  |  |  | 
AGTATTGTTTTTGTGG (sugars k2 d4 e3 k2 d5, PS) | 90% |  |  |  | 
GTATTTCTTGATGTGG (sugars k2 d4 e3 k2 d5, PS) | 97% |  |  |  | 
GTTCTAACTCTTGGGC (sugars kkdddddkekeddddd, PS) | 84% |  |  |  | 
TGGGAATTATGGAATT (sugars kkddddekekeddddd, PS) | 78% |  |  |  | 
TTTGTAAGTGCAACCA (sugars kkkddddkekekdddd, PS) | 63% |  |  |  | 
TTTGTAAGTGCAACCA (sugars kkddddkekekddddd, PS) | 98% |  |  |  | 
AAGATTGGCTCTGGCT (sugars kkddddekekeddddd, PS) | 66% |  |  |  | 
ACTCCTTATGTTTTGA (sugars k4 d9 k3, PS) |  | 46% | 75% | 91% | 
GTCATTAGTGCTATAG (sugars k4 d9 k3, PS) |  | 68% | 87% | 93% | 
CGTTCCAGGCCTCATT (sugars k4 d9 k3, PS) |  | 40% | 60% | 82% | 
ATCAGATGGGTACTTC (sugars kkkddddkekekdddd, PS) | 54% |  |  |  | 
CAGTTTTGTAAGTGCA (sugars k4 d9 k3, PS) |  | 96% | 98% | 99% | 
TTGTAAGTGCAACCAA (sugars k2 d4 e3 k2 d5, PS) | 83% |  |  |  | 
ACACATCATTGGGTTA (sugars k4 d9 k3, PS) |  | 54% | 75% | 87% | 
GCTAATTTTCTGACTG (sugars k4 d9 k3, PS) |  | 77% and 60% | 95% and 85% | 98% and 91% | 
GTTATATTTGATCCTC (sugars k2 d4 e4 k2 d4, PS) | 69% |  |  |  | 
CTGTTCTAACTCTTGG (sugars kkddddkekekddddd, PS) | 88% |  |  |  | 
TATTTCTTGATGTGGT (sugars k2 d4 e4 k2 d4, PS) | 96% |  |  |  | 
AACACATCATTGGGTT (sugars kkkddddkekeddddd, PS) | 21% |  |  |  | 
AACGCAATGCTGACTT (sugars kkkddddkekeddddd, PS) | 83% |  |  |  | 
